Ki, IC50 and Hill coefficient data for four molecules are collected here from US7960374B2, “Tricyclic compounds, compositions, and methods useful in the treatment or prophylaxis of 5-HT6 receptor-related disorders” (Proximagen Limited, priority 2006, dated 2011).

Test [1] concerns the target T1, human 5-HT6 receptor (Homo sapiens, UniProt P50406).
T1 construct: expressed in transfected cells; host or cells: HEK293
As to the kind of experiment: 5-HT6 receptor binding assay ([3H]-LSD, SPA). Particulars: for Ki: [3H]-LSD as labeled ligand, membranes of HEK293 cells expressing human 5-HT6, read-out: Binding affinity (Ki) at the human 5-HT6 receptor.

Test [2] has as its target T1, human 5-HT6 receptor. Description: 5-HT6 intrinsic activity assay (inhibition of 5-HT induced increase in cAMP). In kind it is cell-based. Particulars: read-out: Antagonist potency at the human 5-HT6 receptor, fKi (= IC50,corr). As for the experimental part: (b) 5-HT6 Intrinsic Activity Assay
Briefly, HEK293/5-HT6 cells were seeded in polylysine coated 96-well plates at a density of 25,000/well and grown in DMEM (Dulbecco's Modified Eagle Medium) (without phenol-red) containing 5% dialyzed Foetal Bovine Serum for 48 h at 37° C. in a 5% CO2 incubator. The medium was then aspirated and replaced by 0.1 ml assay medium (Hanks Balance Salt Solution containing 20 mM HEPES, 1.5 mM isobutylmethylxanthine and 1 mg/ml bovine serum albumin). After addition of test substances, 50 μl dissolved in assay medium, the cells were incubated for 10 min at 37° C. in a 5% CO2 incubator. The medium was again aspirated and the cAMP content was determined using a radioactive cAMP kit (Amersham Pharmacia Biotech, BIOTRAK RPA559).

T1 sequence (P50406 whole entry): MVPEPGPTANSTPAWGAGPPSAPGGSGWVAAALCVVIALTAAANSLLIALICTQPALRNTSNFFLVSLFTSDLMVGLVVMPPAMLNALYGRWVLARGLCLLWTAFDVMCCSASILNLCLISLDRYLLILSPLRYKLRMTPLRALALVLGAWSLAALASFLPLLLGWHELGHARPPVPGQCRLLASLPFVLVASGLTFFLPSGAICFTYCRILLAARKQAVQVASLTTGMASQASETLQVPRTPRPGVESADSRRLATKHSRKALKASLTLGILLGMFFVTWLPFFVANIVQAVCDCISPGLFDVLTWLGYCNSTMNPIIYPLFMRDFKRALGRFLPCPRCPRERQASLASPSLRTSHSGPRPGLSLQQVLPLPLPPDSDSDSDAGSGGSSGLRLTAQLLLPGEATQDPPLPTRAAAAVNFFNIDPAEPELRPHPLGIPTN

Take `CN1CCOc2ccc3c(ccn3S(=O)(=O)c3ccccc3)c2C1` [Example 5, 2-Methyl-8-(phenylsulfonyl)-1,3,4,8-tetrahydro-2H-[1,4]oxazepino[6,7-e]indole]: the Ki at human 5-HT6 receptor [1] was 2 nM. The IC50 at human 5-HT6 receptor [2] turned out to be 3 nM. Regarding `NCCc1c[nH]c2ccc(O)cc12` [Example 5-HT, 5-hydroxytryptamine, reference compound], the Hill coefficient on human 5-HT6 receptor [1] (three experiments) is on record as 0.94 (SD 0.09). Regarding `CN1CCOc2ccc3c(ccn3S(=O)(=O)c3ccc4ncsc4c3)c2C1` [Example 10, 8-(1,3-Benzothiazol-6-ylsulfonyl)-2-methyl-1,3,4,8-tetrahydro-2H-[1,4]oxazepino[6,7-e]indole], at human 5-HT6 receptor [1], the Ki was found to be 1 nM. Further, the half-maximal inhibitory concentration (IC50) at human 5-HT6 receptor [2] stood at 1 nM. As to `O=S(=O)(c1ccccc1)n1ccc2c3c(ccc21)OCCNC3` [Example 49, 8-(Phenylsulfonyl)-1,3,4,8-tetrahydro-2H-[1,4]oxazepino[6,7-e]indole], the Ki on human 5-HT6 receptor [1] was 2 nM. Further, the IC50 at human 5-HT6 receptor [2] came to 5 nM.
